The nature of series [1]: Cytotoxicity (PCSK9 Secretion Cell Health HepG2). Type of series: cell-based. To be noted: human, HepG2 cells; read-out: IC50-B cytotoxicity. The source says: (§1) PCSK9 expression is actively regulated at transcription levels. Statins are known to stimulate PCSK9 transcription which in turn curbs the efficacy of statins in LDL lowering in humans. […] A number of primary and secondary assays to measure PCSK9 secretion/modulation in response to putative active agents are known. Primary assays: PCSK9 Secretion HepG2 SP/CRC (% Inhibition/IC50); PCSK9 Secretion Cell Health HepG2 SP/CRC (% Inhibition/IC50); and Metabolic Luciferase Reporter Assay CRC (IC50). Secondary assays: PCSK9 ELISA HepG2 CRC (IC50); ApoA-1 ELISA HepG2 CRC (IC50), and Profiling Biochemical Activity—Kinase Panel SP/CRC (% Efficacy/IC50). All of these assays are publicly accessible via Lilly's Open Innovation Drug Discovery program (as well as other sources).

A further series concerns IL17 secretion. Kind of series: IL17 secretion from human PBMCs stimulated with IL23, anti-CD3 and anti-CD28. Type of series: cell-based. To be noted: PBMC. From the text: The present compounds are thus useful to treat autoimmune disorders such as (but not limited to) arthritis, multiple sclerosis, psoriasis, and inflammatory bowel disease. The IL-17 pathway plays an essential pathological role in many autoimmune diseases including arthritis, multiple sclerosis, psoriasis, and inflammatory bowel disease. IL-17 is produced and secreted by at least two classes of lymphocytes, δγ and CD4+ T cells (Th17). The orphan nuclear receptor RORg is required for the differentiation of Th17 cells where over-expression in human and rodent T cells induces transcripts found in Th17 cells encoding key cytokines for the IL23 receptor and chemokines for the CCR6 receptor. In addition to RORg, recent global analysis of transcription factors has highlighted the molecular complexity of the Th17 differentiation program.
Active compounds are identified by measuring their ability to inhibitor IL17 secretion from human peripheral blood mononuclear cells (PBMCs) following stimulation of memory T cells by IL23, anti-CD3, and anti-CD28. See M. Ciofani, et al (2012) “A validated regulatory network for Th17 cell specification.” Cell, 151:289-303.

The next series relates to PCSK9 secretion. Briefly: PCSK9 secretion in HepG2 cells. Type of series: cell-based. To be noted: Homo sapiens.
Description: as §1

Another series concerns IL5. Briefly: IL5 inhibition. Type of series: cell-based.
The test system of a further series is protein secretion. Briefly: Non-selective inhibition at protein secretion. Type of series: cell-based. To be noted: Homo sapiens; HepG2 cells; read-out: IC50-C non-selective inhibition at protein secretion.
Description: as §1

The test system of another series is GLP-1 secretion. Kind of series: GLP-1 secretion (ELISA). Type of series: cell-based. From the text:
Similarly, the present indole compounds also modify the activity of glucagon-like peptide 1 (GLP-1), which plays a critical role in hyperglycemia and diabetes in humans. Glucagon-like peptide 1 (GLP-1) is derived from transcription of the proglucagon gene followed by post-translational modifications of proglucagon to the following biologically active peptides: GLP-1 (7-37) and GLP-1 (7-36)-NH2. GLP-1 secretion by ileal L cells is dependent on the presence of nutrients in the lumen of the small intestine. GLP-1 is a potent anti-hyperglycemic hormone that induces glucose-dependent insulin secretion and suppresses glucagon secretion.
GLP-1 secretion is measured using an ELISA designed to detect the appropriate forms of GLP-1 secreted from these cells. See, for example, Gareth E. Kim and Patricia L. Brubaker (December 2006) “Glucagon-Like Peptide 1 Secretion by the L-Cell,” Diabetes: 55 (supplement 2).
A general note: ELISA stands for enzyme-linked immunosorbent assay.

Where [2] appears, read: HepG2 cells, read-out: IC50-A inhibition of PCSK9 secretion.

Here are results for six molecules from patent US10174008B2, “Synthesis of cyclopropyl indoles and cyclohepta[B]indoles, pharmaceutical compositions containing them and method of using them” (WISCONSIN ALUMNI RESEARCH FOUNDATION, priority 2014, dated 2019).

Like-named read-outs stand apart in the source and are kept apart here.

As a reminder, the IC50 is the point on the concentration scale where inhibition reaches its midpoint. In general, melting point refers to the temperature of the solid-liquid transition. As to `COc1ccc(C2C[C@@H]2c2c(C)c3ccccc3n2S(=O)(=O)c2ccc(C)cc2)cc1` (stereo in doubt) [8a, 2-(2-(4-methoxyphenyl)cyclopropyl)-3-methyl-1-tosyl-1H-indole], the melting point fell in the range of 155 to 156 °C. Also, the IC50 in series [1] was more than 50 µM. Besides, half-maximal inhibition in the series on IL17 secretion (IC50) was put at 10 µM. Further, the IC50 with PCSK9 secretion (HepG2, read-out: PCSK9, IC50) worked out at 1.8 µM. In addition, the IC50 in the series with PCSK9 secretion (setting [2]) came to 1.8 µM. Besides, the IC50 in the series with IL5 is more than 30 µM. In addition, the IC50 with protein secretion was more than 50 µM.

`Cc1ccc(S(=O)(=O)n2c([C@@H]3CC3c3ccccc3)c(C)c3ccccc32)cc1` (stereo in doubt) [8b, 3-methyl-2-(2-phenylcyclopropyl)-1-tosyl-1H-indole] came in with a melting point of 156 to 157 °C. For the same molecule, the IC50 in the series with PCSK9 secretion (HepG2, read-out: PCSK9, IC50) was 21 µM. In the series with PCSK9 secretion (setting [2]), the IC50 amounted to 21 µM.

Broadly, the EC50 is the concentration needed to bring the measured effect to its halfway point. Low readings indicate a more potent agent, high ones a less potent agent. For `Cc1ccc(S(=O)(=O)n2c(C3C[C@]3(CO)c3ccccc3)c(C)c3ccccc32)cc1` (stereo in doubt) [8i, (2-(3-methyl-1-tosyl-1H-indol-2-yl)-1-phenylcyclopropyl)methanol], the melting point fell in the range of 57 to 58 °C. The molecule further registered an EC50 in the series on GLP-1 secretion of 7.3 µM.

For `Cc1ccc(S(=O)(=O)n2c([C@H]3C[C@H]3c3ccc4c(c3)OCO4)c(C)c3ccccc32)cc1` [8f, 2-(2-(benzo[d][1,3]dioxol-5-yl)cyclopropyl)-3-methyl-1-tosyl-1H-indole], the melting point was in the range of 106 to 107 °C. For the same molecule, the IC50 in series [1] was more than 50 µM. This molecule also gave an IC50 in the series on IL17 secretion of 7.3 µM. For the same molecule, the IC50 with PCSK9 secretion (HepG2, read-out: PCSK9, IC50) was found to be 9.9 µM. For the same molecule, the IC50 in the series on PCSK9 secretion (setting [2]) was found to be 9.9 µM. Also, in the series on IL5, the IC50 is more than 30 µM. Besides, the IC50 in the series with protein secretion was more than 50 µM.

On to `CCc1c(C2CC2c2ccc(OC)cc2)n(S(=O)(=O)c2ccc(C)cc2)c2ccccc12` (stereo not shown) [10g, 3-ethyl-2-(2-(4-methoxyphenyl)cyclopropyl)-1-tosyl-1H-indole], for which the IC50 in series [1] is more than 50 µM; in the series on PCSK9 secretion (HepG2, read-out: PCSK9, IC50), 0.7 µM; with PCSK9 secretion (setting [2]) it was 0.7 µM; in the series on protein secretion, more than 50 µM.

Take `COc1ccc(C2C=CCCc3c2c2ccccc2n3S(=O)(=O)c2ccc(C)cc2)cc1` (stereo not shown) [compound 14, (Z)-10-(4-methoxyphenyl)-5-tosyl-5,6,7,10-tetrahydrocyclohepta[b]indole]: the melting point fell in the range of 75 to 76 °C. Further, the EC50 with GLP-1 secretion was 28.4 µM.
